Measurements from PubChem BioAssay (NCI).
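Values below derive from 48-hour exposures of cells grown in 96-well plates, with endpoints linearly interpolated between the two concentrations bracketing the appropriate inhibition level. Abbreviation: GI50, concentration required for 50% inhibition of growth. The concentration for full growth arrest is given as TGI.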

Tests used:
Experiment in all cases: growth of human tumour cells (NCI), 48 h
NCI-H23 lung = test system: NCI-H23 lung
OVCAR-5 ovarian = test system: OVCAR-5 ovarian
ACHN renal = test system: ACHN renal
MOLT-4 leukemia = test system: MOLT-4 leukemia
UACC-257 melanoma = test system: UACC-257 melanoma
SK-MEL-5 melanoma = test system: SK-MEL-5 melanoma
UACC-62 melanoma = test system: UACC-62 melanoma
SNB-19 CNS = test system: SNB-19 CNS
HCT-116 colon = test system: HCT-116 colon

SMILES	TGI (NCI-H23 lung) [µM]	TGI (OVCAR-5 ovarian) [µM]	TGI (ACHN renal) [µM]	TGI (MOLT-4 leukemia) [µM]	TGI (UACC-257 melanoma) [µM]	TGI (SK-MEL-5 melanoma) [µM]	TGI (UACC-62 melanoma) [µM]	TGI (SNB-19 CNS) [µM]	TGI (HCT-116 colon) [µM]	GI50 (OVCAR-5 ovarian) [µM]	GI50 (ACHN renal) [µM]	GI50 (MOLT-4 leukemia) [µM]	GI50 (UACC-257 melanoma) [µM]	GI50 (SK-MEL-5 melanoma) [µM]	GI50 (UACC-62 melanoma) [µM]	GI50 (SNB-19 CNS) [µM]	GI50 (HCT-116 colon) [µM]
CCCCCNC(=O)C1C(=O)N(CCCCC)C(=O)/C1=N\N (stereo unspecified)	> 100	> 100	> 100	> 100	> 100	> 100	> 100	> 100	–	–	–	–	–	–	–	–	–
COC(=O)[C@@]12C3=NO[C@]1(C(=O)OC)C(O[Si](C)(C)C(C)(C)C)C1OC(C)(C)OC1[C@@H]2[C@@H](OCc1ccccc1)CC3 (stereo partly specified)	> 100	–	–	> 100	–	> 100	> 100	> 100	> 100	–	–	–	–	–	–	–	–
CNS(=O)(=O)NN(C)S(=O)(=O)c1ccc(C)cc1	> 100	> 100	> 100	> 100	> 100	> 100	> 100	> 100	> 100	–	–	–	–	–	–	–	–
O=c1[nH]cnc2c1nnn2C1C=C(CO)C(O)C1O (stereo unspecified)	> 100	> 100	> 100	> 100	> 100	> 100	> 100	> 100	> 100	–	–	–	–	–	–	–	–
Nc1ncn([C@@H]2C=C(CO)C(O)C2O)c(=O)n1 (stereo partly specified)	> 100	> 100	> 100	> 100	> 100	> 100	> 100	> 100	> 100	–	–	–	–	–	–	–	–
Cc1cc(C)c2c(c1C)CN1CN2Cc2c(C)c(C)cc(C)c21	> 100	> 100	> 100	> 100	–	–	> 100	–	> 100	–	–	–	–	–	–	–	–
Nc1ccc(C(=O)O)c2[nH]c3ccccc3c(=O)c12	–	> 100	> 100	> 100	> 100	> 100	> 100	> 100	> 100	–	–	–	–	–	–	–	–
CC1(C)CC[C@]2(C(=O)O)CCC3(C)C(=CCC4[C@@]5(C)CC[C@H](OC6OCC(O)C(O)C6OC6OC(CO)C(O)C(O)C6O)C(C)(C)C5CC[C@]43C)C2C1 (stereo partly specified)	4.2	6.93	3.64	7.95	9.21	11.4	3.42	3.7	7.06	–	–	–	–	–	–	–	–
CC(=O)[CH-]C(=O)c1ccccc1.CC(=O)[CH-]C(=O)c1ccccc1.[O-]Cc1cccs1.[O-]Cc1cccs1.[Ti+4]	–	> 100	> 100	> 100	> 100	> 100	> 100	> 100	> 100	38.2	> 100	> 100	> 100	> 100	18	> 100	33
O=C1/C(=C/c2ccccc2Cl)COc2ccccc21	36	32.4	34.6	68.1	34.9	–	–	–	17	–	–	–	–	–	–	–	–
COc1ccccc1NS(=O)(=O)c1cc(C(C)(C)C)ccc1OCCOc1ccc(C(C)(C)C)cc1S(=O)(=O)Nc1ccccc1OC	> 100	> 100	> 100	> 100	> 100	> 100	> 100	> 100	> 100	–	–	–	–	–	–	–	–
CC/C(=C(/CC)c1ccc(OP(=O)([O-])[O-])cc1)c1ccc(OP(=O)([O-])[O-])cc1.N.N.N.N.[Pt+4].[Pt+4]	–	77.8	10.9	19.5	10.1	9.34	5.15	–	> 100	6.98	2.08	1.09	2.99	2.22	0.901	–	5.66
CC1(C)CC(C2CC(C)(C)CC(C)(C)[C@H]2O)[C@@H](O)C(C)(C)C1 (stereo partly specified)	> 100	–	> 100	> 100	> 100	> 100	> 100	> 100	> 100	–	–	–	–	–	–	–	–
COc1ccc(C=O)c(N(C)C(=O)C(C)(C)C)c1	> 100	–	> 100	> 100	> 100	> 100	> 100	> 100	> 100	–	–	–	–	–	–	–	–
Cc1ccc(S(=O)(=O)OC(C=O)C(O)C(O)COC(c2ccccc2)(c2ccccc2)c2ccccc2)cc1 (stereo unspecified)	–	34.7	28.7	46.5	25.9	28.9	28.9	31.7	30.5	–	–	–	–	–	–	–	–
CCN1CCC(O)(c2ccccc2)C(C(=O)c2ccccc2)C1 (stereo unspecified)	97.5	37.5	30.5	> 60.2	46.5	> 100	> 69.2	> 100	31	–	–	–	–	–	–	–	–
CC1=C(C(=O)Nc2cc(F)c(F)cc2F)C(c2cccc([N+](=O)[O-])c2)C(C(=O)Nc2ccccc2C(F)(F)F)=C(C)N1 (stereo unspecified)	46.5	62.1	66.1	42	59.3	63.9	–	> 100	–	–	–	–	–	–	–	–	–
COC(=O)C1(c2ccc(OC)cc2)NC(c2ccccc2)C2C(=O)N(c3ccc(OC)cc3)C(=O)C21 (stereo unspecified)	> 100	> 100	> 100	> 100	> 100	> 100	> 100	> 100	–	–	–	–	–	–	–	–	–
N/C(=N\N=C=C1C(=O)Nc2ccc(F)cc21)NO	> 100	–	> 100	> 100	> 100	> 100	> 100	–	> 100	–	–	–	–	–	–	–	–
Nc1cc2c3c(cccc3c1)C(=O)N(CCN1CCN(CCN3C(=O)c4cccc5cc(N)cc(c45)C3=O)CC1)C2=O	> 100	> 100	> 100	> 100	> 100	> 100	> 100	> 100	> 100	–	–	–	–	–	–	–	–
Cc1ccc(NC(=O)CCC(=O)C2CC(=O)CCC2=O)cc1C (stereo unspecified)	> 100	> 100	> 100	> 100	> 100	> 100	> 100	> 100	> 100	–	–	–	–	–	–	–	–
Cn1c(=O)c2c(nc3n2C(CCl)CO3)n(C)c1=O (stereo unspecified)	> 100	> 100	> 100	> 100	> 100	> 100	> 100	> 100	> 100	–	–	–	–	–	–	–	–
